Data published in PubChem BioAssay AID330 (DTP/NCI, 2004).
Several values for one entry are separate records, joined by “and”; a condition that tells them apart may be missing. Equal values may be shown once. Inconclusive results and toxic doses are left out. The calls were made as follows: active = survival T/C of 150% or more; inactive = T/C below 125% in these data.

System: P388 leukemia ip, CD2F1 mice, survival T/C
Assay: NCI In Vivo Anticancer Drug Screen. Data for tumor model P388 Leukemia (intraperitoneal) in CD2F1 (CDF1) mice
Settings: endpoint: median survival time, higher = longer survival
Summary of the method: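 Mice carrying the transplanted tumor received test compound or vehicle. Survival was recorded in each group, and the value is the treated-group measurement divided by that of the vehicle-treated control group.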

[1] = dose: 50.0 mg/kg/injection, schedule: Q01DX009 (ip), vehicle: saline with Tween-80
[2] = dose: 100.0 mg/kg/injection, schedule: Q01DX009 (ip), vehicle: saline with Tween-80
[3] = dose: 200.0 mg/kg/injection, schedule: Q01DX009 (ip), vehicle: saline with Tween-80
[4] = dose: 50.0 mg/kg/injection, schedule: Q01DX005 (ip), vehicle: saline with Tween-80
[5] = dose: 100.0 mg/kg/injection, schedule: Q01DX005 (ip), vehicle: saline with Tween-80
[6] = dose: 50.0 mg/kg/injection, schedule: Q01DX005 (ip), vehicle: Klucel (hydroxypropylcellulose) (HPC)
[7] = dose: 100.0 mg/kg/injection, schedule: Q01DX005 (ip), vehicle: Klucel (hydroxypropylcellulose) (HPC)
[8] = dose: 200.0 mg/kg/injection, schedule: Q01DX005 (ip), vehicle: Klucel (hydroxypropylcellulose) (HPC)
[9] = dose: 50.0 mg/kg/injection, schedule: Q01DX009 (ip), vehicle: saline
[10] = dose: 100.0 mg/kg/injection, schedule: Q01DX009 (ip), vehicle: saline
[11] = dose: 200.0 mg/kg/injection, schedule: Q01DX009 (ip), vehicle: saline
[12] = dose: 50.0 mg/kg/injection, schedule: Q01DX009 (ip), vehicle: Klucel (hydroxypropylcellulose) (HPC)
[13] = dose: 100.0 mg/kg/injection, schedule: Q01DX009 (ip), vehicle: Klucel (hydroxypropylcellulose) (HPC)
[14] = dose: 60.0 mg/kg/injection, schedule: Q01DX005 (ip), vehicle: saline with Tween-80
[15] = dose: 120.0 mg/kg/injection, schedule: Q01DX005 (ip), vehicle: saline with Tween-80
[16] = dose: 240.0 mg/kg/injection, schedule: Q01DX005 (ip), vehicle: saline with Tween-80
[17] = dose: 12.5 mg/kg/injection, schedule: Q01DX009 (ip), vehicle: other
[18] = dose: 25.0 mg/kg/injection, schedule: Q01DX009 (ip), vehicle: other
[19] = dose: 50.0 mg/kg/injection, schedule: Q01DX009 (ip), vehicle: other
[20] = dose: 100.0 mg/kg/injection, schedule: Q01DX009 (ip), vehicle: other
[21] = dose: 200.0 mg/kg/injection, schedule: Q01DX009 (ip), vehicle: other
[22] = dose: 12.5 mg/kg/injection, schedule: Q01DX005 (ip), vehicle: Klucel (hydroxypropylcellulose) (HPC)
[23] = dose: 25.0 mg/kg/injection, schedule: Q01DX005 (ip), vehicle: Klucel (hydroxypropylcellulose) (HPC)

Measured: T/C

NC(=S)N/N=C\c1ccc(/C=N/NC(N)=S)cc1
inactive: dose: 100.0 mg/kg/injection, schedule: Q04DX003 (ip), vehicle: saline with Tween-80 91 % of control | dose: 400.0 mg/kg/injection, schedule: Q04DX003 (ip), vehicle: saline with Tween-80 86 % of control

Oc1ccc(N=Cc2ccccn2)cc1
inactive: dose: 25.0 mg/kg/injection, schedule: Q01DX009 (ip), vehicle: saline with Tween-80 94 % of control | [1] 105 % of control and 88 % of control | [2] 107 % of control and 88 % of control | [3] 103 % of control

COc1cc2c(cc1OC)-c1c(C)c3ccc(OC)c(NCCN)c3c[n+]1CC2
inactive: dose: 6.25 mg/kg/injection, schedule: Q04DX003 (ip), vehicle: water 110 % of control | dose: 12.5 mg/kg/injection, schedule: Q04DX003 (ip), vehicle: water 91 % of control | dose: 25.0 mg/kg/injection, schedule: Q04DX003 (ip), vehicle: water 101 % of control

CC1C(=O)OC2CCN3CC4OC4(COC(=O)C(C)(O)C1(C)O)C23 (stereo not drawn)
inactive: dose: 132.0 mg/kg/injection, schedule: Q04DX003 (ip), vehicle: saline with Tween-80 90 % of control | dose: 200.0 mg/kg/injection, schedule: Q04DX003 (ip), vehicle: saline with Tween-80 110 % of control | dose: 300.0 mg/kg/injection, schedule: Q04DX003 (ip), vehicle: saline with Tween-80 100 % of control

Cc1ccc(C)c(C(=O)CCN(C)C)c1
inactive: dose: 15.0 mg/kg/injection, schedule: Q01DX005 (ip), vehicle: saline 106 % of control | dose: 30.0 mg/kg/injection, schedule: Q01DX005 (ip), vehicle: saline 94 % of control | dose: 60.0 mg/kg/injection, schedule: Q01DX005 (ip), vehicle: saline 99 % of control and 101 % of control

CCN(CC)CCOc1ccc(Cl)c(C)c1
inactive: [4] 101 % of control | [5] 103 % of control

CCCCCCCCCCS(=O)(=O)OCCCCOS(=O)(=O)CCCCCCCCCC
inactive: [6] 103 % of control | [7] 103 % of control | [8] 93 % of control

O=C(CN1CCCCC1)Nc1cccc(Cl)c1
inactive: [1] 100 % of control | [9] 103 % of control | [2] 100 % of control | [10] 107 % of control | [3] 123 % of control | [11] 120 % of control

FC(F)(F)C1=C(C(F)(F)F)SP23(OCCC(CO2)O3)S1 (stereo not drawn)
inactive: dose: 12.5 mg/kg/injection, schedule: Q01DX009 (ip), vehicle: Klucel (hydroxypropylcellulose) (HPC) 107 % of control and 108 % of control | dose: 25.0 mg/kg/injection, schedule: Q01DX009 (ip), vehicle: Klucel (hydroxypropylcellulose) (HPC) 106 % of control and 114 % of control | [12] 109 % of control and 114 % of control | [13] 107 % of control and 116 % of control

CCOC(=O)N1CCC(n2nncc2OCC)CC1
inactive: dose: 100.0 mg/kg/injection, schedule: Q04DX002 (ip), vehicle: Klucel (hydroxypropylcellulose) (HPC) 102 % of control | dose: 200.0 mg/kg/injection, schedule: Q04DX002 (ip), vehicle: Klucel (hydroxypropylcellulose) (HPC) 102 % of control | dose: 400.0 mg/kg/injection, schedule: Q04DX002 (ip), vehicle: Klucel (hydroxypropylcellulose) (HPC) 105 % of control

CC(=O)C1=C(C)O/C(=C/c2cccc(Cl)c2)C1=O
inactive: dose: 12.5 mg/kg/injection, schedule: Q01DX005 (ip), vehicle: saline with Tween-80 107 % of control | dose: 25.0 mg/kg/injection, schedule: Q01DX005 (ip), vehicle: saline with Tween-80 118 % of control | [4] 120 % of control and 121 % of control | [5] 118 % of control | dose: 200.0 mg/kg/injection, schedule: Q01DX005 (ip), vehicle: saline with Tween-80 119 % of control

C=C1C(=O)OC2/C=C(\C)CC/C=C(/C=O)C(OC(=O)C(C)C)C(O)C12 (stereo not drawn)
inactive: dose: 8.0 mg/kg/injection, schedule: Q01DX009 (ip), vehicle: saline + alcohol 97 % of control

COc1c(-c2ccccc2)c(=O)n2c3cc(C)c(C)cc3n(C)c2c1C#N
inactive: [14] 100 % of control | [15] 86 % of control | [16] 89 % of control

COc1ccc(-c2cc(-c3ccccc3)cc(-c3ccc(OC)cc3)n2)cc1
inactive: [6] 98 % of control | [7] 94 % of control | [8] 92 % of control

COc1cc(N=C=S)ccc1NC(=O)c1cc(Br)cc(Br)c1O
inactive: dose: 100.0 mg/kg/injection, schedule: Q01DX001 (ip), vehicle: Klucel (hydroxypropylcellulose) (HPC) 106 % of control | dose: 200.0 mg/kg/injection, schedule: Q01DX001 (ip), vehicle: Klucel (hydroxypropylcellulose) (HPC) 101 % of control | dose: 400.0 mg/kg/injection, schedule: Q01DX001 (ip), vehicle: Klucel (hydroxypropylcellulose) (HPC) 106 % of control

COc1cc(C2c3cc4c(cc3OC(N3CCCC3)C2C)OCO4)cc(OC)c1OC (stereo not drawn)
inactive: [14] 90 % of control | [15] 93 % of control | [16] 104 % of control

O=C(C1=Cc2ccccc2OC1)N1CCN(c2ccccc2Cl)CC1
inactive: dose: 100.0 mg/kg/injection, schedule: Q04DX003 (ip), vehicle: Klucel (hydroxypropylcellulose) (HPC) 106 % of control | dose: 200.0 mg/kg/injection, schedule: Q04DX003 (ip), vehicle: Klucel (hydroxypropylcellulose) (HPC) 101 % of control | dose: 400.0 mg/kg/injection, schedule: Q04DX003 (ip), vehicle: Klucel (hydroxypropylcellulose) (HPC) 88 % of control

COc1ccc(-c2c(N)cnc(C(=O)O)c2C)c(OCc2ccccc2)c1OC
inactive: [17] 108 % of control | [18] 105 % of control | [19] 102 % of control | [20] 97 % of control | [21] 99 % of control

CC1NCCc2c1[nH]c1ccccc21 (stereo not drawn)
inactive: [22] 101 % of control | [23] 97 % of control | [6] 101 % of control and 97 % of control

O=S(=O)(c1ccc(NC(=S)N2CCOCC2)cc1)N1CCCCC1
inactive: [12] 100 % of control | [13] 96 % of control | dose: 200.0 mg/kg/injection, schedule: Q01DX009 (ip), vehicle: Klucel (hydroxypropylcellulose) (HPC) 97 % of control

C[CH](C)[Ge]([CH3])([CH](C)C)[CH](C)C
inactive: [9] 100 % of control | [10] 93 % of control | [11] 110 % of control

C[n+]1cccc(NC(=O)c2ccccc2)c1
inactive: dose: 7.5 mg/kg/injection, schedule: Q01DX005 (ip), vehicle: saline with Tween-80 102 % of control | dose: 15.0 mg/kg/injection, schedule: Q01DX005 (ip), vehicle: saline with Tween-80 99 % of control | dose: 30.0 mg/kg/injection, schedule: Q01DX005 (ip), vehicle: saline with Tween-80 113 % of control

O=C(O)c1c(Cl)c(Cl)c(Cl)c(Cl)c1Cl
inactive: [2] 95 % of control | [3] 100 % of control | dose: 400.0 mg/kg/injection, schedule: Q01DX009 (ip), vehicle: saline with Tween-80 113 % of control

O=C(Nc1ccc(Cl)cc1)OCC12COCN1COC2
inactive: [1] 87 % of control | [2] 95 % of control

CCOC(=O)COc1cc2c(cc1Cc1ccc3c(c1)OCO3)OCO2
inactive: [22] 96 % of control | [23] 96 % of control | [6] 101 % of control | [7] 98 % of control | [8] 99 % of control

Oc1ccc(N=Cc2ccc3c(c2)OCO3)cc1
inactive: [17] 109 % of control | [18] 111 % of control | [19] 94 % of control | [20] 113 % of control | [21] 111 % of control | dose: 400.0 mg/kg/injection, schedule: Q01DX009 (ip), vehicle: other 108 % of control

O=S1(=O)CCN(Cc2cccnc2)CC1
inactive: [9] 94 % of control | [10] 98 % of control | [11] 91 % of control

COc1ccc(NS(=O)(=O)c2ccc(F)cc2)cc1
inactive: [14] 99 % of control | [15] 106 % of control | [16] 106 % of control
